Assay results from the supplement of paper PMC4862054.

Experiments:
Details in all cases: 72 h
BT-474 [1] = test system: BT-474
Method in brief: (§1)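 Breast cancer cell lines (20 µl suspension) were seeded into 384-well plates holding compound at 5 concentrations in 10-fold steps over a compound-specific 10,000-fold range, then incubated 72 h. Cell death was read first by CellTox Green fluorescence (485/520 nm), then viability by CellTiter-Glo luminescence after 10 min at room temperature. Each plate was normalised to 0.1 % DMSO and a positive kill control. EC50 was fitted from the dose-response curves and censored at the top concentration.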

BT-549 [2] = test system: BT-549
Method in brief: as §1

CAL-120 [3] = test system: CAL-120
Method in brief: as §1

MCF-10A [4] = test system: MCF-10A
Method in brief: as §1

MDA-MB-453 [5] = test system: MDA-MB-453
Method in brief: as §1

MDA-MB-468 [6] = test system: MDA-MB-468
Method in brief: as §1

MFM-223 [7] = test system: MFM-223
Method in brief: as §1

SK-BR-3 [8] = test system: SK-BR-3
Method in brief: as §1

CAL-120 [9] = test system: CAL-120; remark: listed apart in the source
Description: (§2)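 Drug sensitivity and resistance testing (DSRT) of breast cancer cell lines in 384-well plates, 5 concentrations in 10-fold dilutions over a compound-specific 10,000-fold range. After 72 h, cytotoxicity was read by CellTox Green fluorescence and viability by CellTiter-Glo luminescence (multiplexed), normalised to DMSO and benzethonium chloride controls. EC50 is the inflection point of the fitted dose-response curve (bottom asymptote free, so it can be relative for partial curves) and is censored at the highest tested concentration. Rows with DSS 0 (no meaningful response) were excluded.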

CAL-148 [10] = test system: CAL-148
Method in brief: as §1

CAL-51 [11] = test system: CAL-51
Method in brief: as §1

HCC1143 [12] = test system: HCC1143
Method in brief: as §1

HCC1937 [13] = test system: HCC1937
Method in brief: as §1

MDA-MB-436 [14] = test system: MDA-MB-436
Method in brief: as §1

CAL-51 [15] = test system: CAL-51; remark: listed apart in the source
Method in brief: (§3)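 Viability of breast cancer cell lines was measured with CellTiter-Blue after 72 h of incubation on compound-loaded 384-well plates. Cells were seeded in 20 µl onto compound dissolved in 5 µl medium, and 2.5 µl reagent was added for 2 h at 37 °C before reading at 560/590 nm. EC50 was fitted from percent-inhibition dose-response data censored at the highest concentration, normalised per plate to vehicle and a positive kill control, with zero drug sensitivity score rows dropped.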

BT-549 [16] = test system: BT-549; remark: listed apart in the source
Method in brief: as §3

CAL-120 [17] = test system: CAL-120; remark: listed apart in the source
Method in brief: as §3

HCC1143 [18] = test system: HCC1143; remark: listed apart in the source
Method in brief: as §3

HCC1937 [19] = test system: HCC1937; remark: listed apart in the source
Method in brief: as §3

Hs578T [20] = test system: Hs578T
Method in brief: as §3

MDA-MB-231 [21] = test system: MDA-MB-231
Method in brief: as §3

MDA-MB-436 [22] = test system: MDA-MB-436; remark: listed apart in the source
Method in brief: as §3

CAL-148 [23] = test system: CAL-148; remark: listed apart in the source
Description: as §2

MDA-MB-436 [24] = test system: MDA-MB-436; remark: listed apart in the source
Description: as §2

CAL-85-1 [25] = test system: CAL-85-1
Method in brief: as §1

DU-4475 [26] = test system: DU-4475
Method in brief: as §1

HCC1599 [27] = test system: HCC1599
Method in brief: as §1

HDQ-P1 [28] = test system: HDQ-P1
Method in brief: as §1

Hs578T [29] = test system: Hs578T; remark: listed apart in the source
Method in brief: as §1

MDA-MB-231 [30] = test system: MDA-MB-231; remark: listed apart in the source
Method in brief: as §1

CAL-148 [31] = test system: CAL-148; remark: listed apart in the source
Method in brief: as §3

CAL-85-1 [32] = test system: CAL-85-1; remark: listed apart in the source
Method in brief: as §3

DU-4475 [33] = test system: DU-4475; remark: listed apart in the source
Method in brief: as §3

HDQ-P1 [34] = test system: HDQ-P1; remark: listed apart in the source
Method in brief: as §3

MDA-MB-453 [35] = test system: MDA-MB-453; remark: listed apart in the source
Method in brief: as §3

BT-474 [36] = test system: BT-474; remark: listed apart in the source
Method in brief: as §3

HCC1599 [37] = test system: HCC1599; remark: listed apart in the source
Method in brief: as §3

MDA-MB-468 [38] = test system: MDA-MB-468; remark: listed apart in the source
Method in brief: as §3

MFM-223 [39] = test system: MFM-223; remark: listed apart in the source
Method in brief: as §3

SK-BR-3 [40] = test system: SK-BR-3; remark: listed apart in the source
Method in brief: as §3

BT-474 [41] = test system: BT-474; remark: listed apart in the source
Description: as §2

BT-549 [42] = test system: BT-549; remark: listed apart in the source
Description: as §2

CAL-85-1 [43] = test system: CAL-85-1; remark: listed apart in the source
Description: as §2

HCC1937 [44] = test system: HCC1937; remark: listed apart in the source
Description: as §2

HDQ-P1 [45] = test system: HDQ-P1; remark: listed apart in the source
Description: as §2

Hs578T [46] = test system: Hs578T; remark: listed apart in the source
Description: as §2

MCF-10A [47] = test system: MCF-10A; remark: listed apart in the source
Description: as §2

MDA-MB-231 [48] = test system: MDA-MB-231; remark: listed apart in the source
Description: as §2

MDA-MB-468 [49] = test system: MDA-MB-468; remark: listed apart in the source
Description: as §2

MFM-223 [50] = test system: MFM-223; remark: listed apart in the source
Description: as §2

For `CC(C)(C)Cn1c(N)nc2ccc(-c3[nH]c(C(C)(C)C)nc3-c3ccc(F)cc3)nc21`, the “EC50, CellTiter-Glo” value (BT-474 [1]) was greater than 10000 nM, the “EC50, CellTiter-Glo” value (BT-549 [2]) was 3340 nM and the “EC50, CellTiter-Glo” value (CAL-120 [3]) was greater than 10000 nM. For the same molecule, the “EC50, CellTiter-Glo” value (MCF-10A [4]) was 4590 nM, the “EC50, CellTiter-Glo” value (MDA-MB-453 [5]) was 1910 nM and the “EC50, CellTiter-Glo” value (MDA-MB-468 [6]) was 6760 nM. The “EC50, CellTiter-Glo” value (MFM-223 [7]) was 3110 nM, the “EC50, CellTiter-Glo” value (SK-BR-3 [8]) was 3050 nM and the “EC50, CellTox Green” value (CAL-120 [9]) was greater than 10000 nM.

With `Cc1c(N)nc([C@H](CC(N)=O)NC[C@H](N)C(N)=O)nc1C(=O)N[C@H](C(=O)N[C@H](C)[C@@H](O)[C@H](C)C(=O)N[C@H](C(=O)NCCc1nc(-c2nc(C(=O)NCCC[S+](C)C)cs2)cs1)[C@@H](C)O)[C@@H](OC1OC(CO)C(O)C(O)C1OC1OC(CO)C(O)C(OC(N)=O)C1O)c1cnc[nH]1` (stereo partly specified) [Bleomycin] the “EC50, CellTiter-Glo” value (BT-549 [2]) was 2360 nM, the “EC50, CellTiter-Glo” value (CAL-148 [10]) was 911 nM and the “EC50, CellTiter-Glo” value (CAL-51 [11]) was 49.9 nM. The “EC50, CellTiter-Glo” value (HCC1143 [12]) was 9670 nM, the “EC50, CellTiter-Glo” value (HCC1937 [13]) was 8710 nM and the “EC50, CellTiter-Glo” value (MDA-MB-436 [14]) was 5920 nM. The “EC50, CellTiter-Glo” value (SK-BR-3 [8]) was 1830 nM, the “EC50, CellTiter-Blue viability” value (CAL-51 [15]) was 9960 nM and the “EC50, CellTiter-Blue viability” value (BT-549 [16]) was 16.4 nM. For the same molecule, the “EC50, CellTiter-Blue viability” value (CAL-120 [17]) was 582 nM, the “EC50, CellTiter-Blue viability” value (HCC1143 [18]) was 201 nM and the “EC50, CellTiter-Blue viability” value (HCC1937 [19]) was 767 nM. The “EC50, CellTiter-Blue viability” value (Hs578T [20]) was 69.2 nM, the “EC50, CellTiter-Blue viability” value (MDA-MB-231 [21]) was 109 nM and the “EC50, CellTiter-Blue viability” value (MDA-MB-436 [22]) was 7330 nM. The “EC50, CellTox Green” value (CAL-148 [23]) was 396 nM and the “EC50, CellTox Green” value (MDA-MB-436 [24]) was 7500 nM.

`CC(C)C[C@H](NC(=O)[C@H](CCc1ccccc1)NC(=O)CN1CCOCC1)C(=O)N[C@@H](Cc1ccccc1)C(=O)N[C@@H](CC(C)C)C(=O)[C@@]1(C)CO1` [Carfilzomib] was tested, and the “EC50, CellTiter-Glo” value (BT-474 [1]) was 13.8 nM, the “EC50, CellTiter-Glo” value (BT-549 [2]) was 3.63 nM and the “EC50, CellTiter-Glo” value (CAL-120 [3]) was 25.3 nM. For the same molecule, the “EC50, CellTiter-Glo” value (CAL-148 [10]) was 33.1 nM, the “EC50, CellTiter-Glo” value (CAL-51 [11]) was 13.1 nM and the “EC50, CellTiter-Glo” value (CAL-85-1 [25]) was 8.12 nM. For the same molecule, the “EC50, CellTiter-Glo” value (DU-4475 [26]) was 42.8 nM, the “EC50, CellTiter-Glo” value (HCC1143 [12]) was 8.56 nM and the “EC50, CellTiter-Glo” value (HCC1599 [27]) was 96.1 nM. For the same molecule, the “EC50, CellTiter-Glo” value (HCC1937 [13]) was 17.2 nM, the “EC50, CellTiter-Glo” value (HDQ-P1 [28]) was 19.1 nM and the “EC50, CellTiter-Glo” value (Hs578T [29]) was 12.4 nM. For the same molecule, the “EC50, CellTiter-Glo” value (MCF-10A [4]) was 90.6 nM, the “EC50, CellTiter-Glo” value (MDA-MB-231 [30]) was 16.9 nM and the “EC50, CellTiter-Glo” value (MDA-MB-436 [14]) was 6.13 nM. For the same molecule, the “EC50, CellTiter-Glo” value (MDA-MB-453 [5]) was 7.36 nM, the “EC50, CellTiter-Glo” value (MDA-MB-468 [6]) was 3.42 nM and the “EC50, CellTiter-Glo” value (MFM-223 [7]) was 3.9 nM. The “EC50, CellTiter-Glo” value (SK-BR-3 [8]) was 5.41 nM, the “EC50, CellTiter-Blue viability” value (CAL-148 [31]) was 25.8 nM and the “EC50, CellTiter-Blue viability” value (CAL-51 [15]) was 20.2 nM. The “EC50, CellTiter-Blue viability” value (CAL-85-1 [32]) was 13.6 nM, the “EC50, CellTiter-Blue viability” value (DU-4475 [33]) was 12.2 nM and the “EC50, CellTiter-Blue viability” value (HDQ-P1 [34]) was 10.9 nM. The “EC50, CellTiter-Blue viability” value (MDA-MB-453 [35]) was 2.22 nM, the “EC50, CellTiter-Blue viability” value (BT-474 [36]) was 26.9 nM and the “EC50, CellTiter-Blue viability” value (BT-549 [16]) was 2.78 nM. The “EC50, CellTiter-Blue viability” value (CAL-120 [17]) was 9.07 nM, the “EC50, CellTiter-Blue viability” value (HCC1143 [18]) was 8.47 nM and the “EC50, CellTiter-Blue viability” value (HCC1599 [37]) was 88.6 nM. The “EC50, CellTiter-Blue viability” value (HCC1937 [19]) was 2.21 nM, the “EC50, CellTiter-Blue viability” value (Hs578T [20]) was 5.47 nM and the “EC50, CellTiter-Blue viability” value (MDA-MB-231 [21]) was 6.44 nM. The “EC50, CellTiter-Blue viability” value (MDA-MB-436 [22]) was 14.3 nM, the “EC50, CellTiter-Blue viability” value (MDA-MB-468 [38]) was 5.66 nM and the “EC50, CellTiter-Blue viability” value (MFM-223 [39]) was 1.94 nM. For the same molecule, the “EC50, CellTiter-Blue viability” value (SK-BR-3 [40]) was 5.45 nM, the “EC50, CellTox Green” value (BT-474 [41]) was 60.2 nM and the “EC50, CellTox Green” value (BT-549 [42]) was 11.4 nM. The “EC50, CellTox Green” value (CAL-120 [9]) was 34.6 nM, the “EC50, CellTox Green” value (CAL-148 [23]) was 16.1 nM and the “EC50, CellTox Green” value (CAL-85-1 [43]) was 9 nM. The “EC50, CellTox Green” value (HCC1937 [44]) was 6.49 nM, the “EC50, CellTox Green” value (HDQ-P1 [45]) was 25.1 nM and the “EC50, CellTox Green” value (Hs578T [46]) was 31.9 nM. For the same molecule, the “EC50, CellTox Green” value (MCF-10A [47]) was 136 nM, the “EC50, CellTox Green” value (MDA-MB-231 [48]) was 10.2 nM and the “EC50, CellTox Green” value (MDA-MB-436 [24]) was 6.94 nM. The “EC50, CellTox Green” value (MDA-MB-468 [49]) was 0.78 nM and the “EC50, CellTox Green” value (MFM-223 [50]) was 8.42 nM.
